Here are results for 31 compounds from patent US20130281398A1, “TREATMENT OF DISEASES BY EPIGENETIC REGULATION” (RVX Therapeutics Inc., priority 2012, published 2013).

The assay has as its target T1, Brd4 bromodomain 1 (Homo sapiens, UniProt O60885).
T1 construct: Illustrative results with the first bromodomain of Brd4; made in house; host or cells: E. coli BL21(DE3)
The assay is described as follows: TR-FRET inhibition of tetra-acetylated histone H4 binding to Brd4 bromodomain 1. The following applies: tetra-acetylated histone H4 peptide and Brd4 bromodomain 1, 2 hours at room temperature. The protocol: Proteins were cloned and overexpressed with a N-terminal 6×His tag, then purified by nickel affinity followed by size exclusion chromatography. Briefly, E. coli BL21(DE3) cells were transformed with a recombinant expression vector encoding N-terminally Nickel affinity tagged bromodomains from Brd2, Brd3, Brd4. Cell cultures were incubated at 37° C. with shaking to the appropriate density and induced overnight with IPTG. The supernatant of lysed cells was loaded onto Ni-IDA column for purification. Eluted protein was pooled, concentrated and further purified by size exclusion chromatography. Fractions representing monomeric protein are pooled, concentrated, aliquoted, and frozen at −80° C. for use in subsequent experiments.
Binding of tetra-acetylated histone H4 and BET bromodomains was confirmed by a Time Resolved Fluorescence Resonance Energy Transfer (TR-FRET) method. N-terminally His-tagged bromodomains (200 nM) and biotinylated tetra-acetylated histone H4 peptide (25-50 nM, Millipore) were incubated in the presence of Europium Cryptate-labeled streptavidin (Cisbio Cat. #610SAKLB) and XL665-labeled monoclonal anti-His antibody (Cisbio Cat. #61 HISXLB) in a white 96 well microtiter plate (Greiner). For inhibition assays, serially diluted test compound was added to these reactions in a 0.2% final concentration of DMSO. Final buffer concentrations were 30 mM HEPES pH 7.4, 30 mM NaCl, 0.3 mM CHAPS, 20 mM phosphate pH 7.0, 320 mM KF, 0.08% BSA). After 2 hours incubation at room temperature, the fluorescence by FRET was measured at 665 and 620 nm by a SynergyH4 plate reader (Biotek). The binding inhibitory activity was shown by a decrease in 665 nm fluorescence relative to 620 nm. IC50 values were determined from a dose response curve.
As for `COc1cc(OCCN)cc2nc(-c3cc(C)c(O)c(C)c3)[nH]c(=O)c12` [Example 3, 7-(2-amino-ethoxy)-2-(4-hydroxy-3,5-dimethyl-phenyl)-5-methoxy-3H-quinazolin-4-one], the “FRET activity (<50 uM)” value is “Active”.

For the compound `COCCOc1cc(OC)c2c(=O)[nH]c(-c3cc(C)c(O)c(C)c3)nc2c1` [Example 4, 2-(4-hydroxy-3,5-dimethyl-phenyl)-5-methoxy-7-(2-methoxy-ethoxy)-3H-quinazolin-4-one], the “FRET activity (<50 uM)” value is recorded as “Active”.

For `COc1cc(OCCOCc2cccnc2)cc2nc(-c3cc(C)c(O)c(C)c3)[nH]c(=O)c12` [Example 6, 2-(4-hydroxy-3,5-dimethylphenyl)-5-methoxy-7-[2-(pyridin-3-ylmethoxy)ethoxy]-3H-quinazolin-4-one], the “FRET activity (<50 uM)” value is given as “Active”.

In the case of `Cc1cc(-c2nc3cc(OCCN(C)C)ccc3c(=O)[nH]2)cc(C)c1O` [Example 7, 7-(2-dimethylamino-ethoxy)-2-(4-hydroxy-3,5-dimethylphenyl)-3H-quinazolin-4-one], the “FRET activity (<50 uM)” value is “Active”.

`Cc1cc(-c2nc3ccc(Nc4ccncc4)cc3c(=O)[nH]2)cc(C)c1O` [Example 8, 2-(4-hydroxy-3,5-dimethyl-phenyl)-6-(pyridin-4-ylamino)-3H-quinazolin-4-one]: the “FRET activity (<50 uM)” value is given as “Active”.

For the compound `Cc1cc(-c2nc3ccc(Nc4ccccn4)cc3c(=O)[nH]2)cc(C)c1O` [Example 9, 2-(4-hydroxy-3,5-dimethyl-phenyl)-6-(pyridin-2-ylamino)-3H-quinazolin-4-one], the “FRET activity (<50 uM)” value is recorded as “Inactive”.

For the compound `Cc1cc(-c2nc3ccc(CN4CCN(C)CC4)cc3c(=O)[nH]2)cc(C)c1O` [Example 10, 2-(4-hydroxy-3,5-dimethylphenyl)-6-((4-methylpiperazin-1-yl)methyl)quinazolin-4(3H)-one], the “FRET activity (<50 uM)” value is reported as “Active”.

As to `Cc1cc(-c2nc3ccc(CNS(C)(=O)=O)cc3c(=O)[nH]2)cc(C)c1O` [Example 11, N-((2-(4-hydroxy-3,5-dimethylphenyl)-4-oxo-3,4-dihydroquinazolin-6-yl)methyl)methanesulfonamide], the “FRET activity (<50 uM)” value is “Active”.

Turning to `COc1cc(OC)c2c(=O)[nH]c(-c3cc(C)c(OCCOCc4ccccc4)c(C)c3)nc2n1` [Example 12, 2-(4-(2-(benzyloxy)ethoxy)-3,5-dimethylphenyl)-5,7-dimethoxypyrido[2,3-d]pyrimidin-4(3H)-one], the “FRET activity (<50 uM)” value was “Inactive”.

For the compound `Cc1cc(C)c2c(=O)[nH]c(-c3cc(C)c(OCCO)c(C)c3)nc2n1` [Example 13, 2-(4-(2-hydroxyethoxy)-3,5-dimethylphenyl)-5,7-dimethylpyrido[2,3-d]pyrimidin-4(3H)-one], the “FRET activity (<50 uM)” value is “Active”.

With `Cc1cc(-c2nc3cc(F)cc(F)c3c(=O)[nH]2)cc(C)c1OCCO` [Example 14, 5,7-difluoro-2-(4-(2-hydroxyethoxy)-3,5-dimethylphenyl)quinazolin-4(3H)-one], the “FRET activity (<50 uM)” value was “Inactive”.

In the case of `COc1cc(OC)c2c(=O)[nH]c(-c3cc(C)c(OCC(O)CO)c(C)c3)nc2c1` (stereo not shown) [Example 16, 2-[4-(2,3-Dihydroxy-propoxy)-3,5-dimethyl-phenyl]-5,7-dimethoxy-3H-quinazolin-4-one], the “FRET activity (<50 uM)” value is recorded as “Active”.

As to `COc1cc(OC)c2c(=O)[nH]c(-c3ccc(OCCO)cc3)nc2c1` [Example 17, 2-[4-(2-hydroxy-ethoxy)-phenyl]-5,7-dimethoxy-3H-quinazolin-4-one], the “FRET activity (<50 uM)” value is reported as “Active”.

With `COc1cc(OC)c2c(=O)[nH]c(-c3ccc(OCCO)c4ccccc34)nc2c1` [Example 18, 2-[4-(2-hydroxy-ethoxy)-naphthalen-1-yl]-5,7-dimethoxy-3H-quinazolin-4-one], the “FRET activity (<50 uM)” value is “Active”.

For the compound `COc1cc(OC)c2c(=O)[nH]c(-c3ccc4oc(CO)cc4c3)nc2c1` [Example 19, 2-(2-hydroxymethyl-benzofuran-5-yl)-5,7-dimethoxy-3H-quinazolin-4-one], the “FRET activity (<50 uM)” value is “Inactive”.

For `COc1cc(OCCOCc2ccccc2)cc2nc(-c3cc(C)c(OCCO)c(C)c3)[nH]c(=O)c12` [Example 20, 7-(2-benzyloxy-ethoxy)-2-[4-(2-hydroxy-ethoxy)-3,5-dimethyl-phenyl]-5-methoxy-3H-quinazolin-4-one], the “FRET activity (<50 uM)” value is “Active”.

Consider `COc1cc(OCCOCc2ccccc2)cc2nc(-c3ccc4oc(CO)cc4c3)[nH]c(=O)c12` [Example 21, 7-(2-benzyloxy-ethoxy)-2-(2-hydroxymethyl-benzofuran-5-yl)-5-methoxy-3H-quinazolin-4-one], for which the “FRET activity (<50 uM)” value was “Inactive”.

Regarding `CNC(=O)COc1c(C)cc(-c2nc3cc(OC)cc(OC)c3c(=O)[nH]2)cc1C` [Example 22, 2-[4-(5,7-dimethoxy-4-oxo-3,4-dihydro-quinazolin-2-yl)-2,6-dimethyl-phenoxy]-N-methyl-acetamide], the “FRET activity (<50 uM)” value was “Active”.

As for `COc1ccc(NC(=O)COc2c(C)cc(-c3nc4cc(OC)cc(OC)c4c(=O)[nH]3)cc2C)cc1` [Example 23, 2-[4-(5,7-Dimethoxy-4-oxo-3,4-dihydro-quinazolin-2-yl)-2,6-dimethyl-phenoxy]-N-(4-methoxy-phenyl)-acetamide], the “FRET activity (<50 uM)” value is recorded as “Active”.

Consider `COc1cc(OC)c2c(=O)[nH]c(-c3cc(C)c(OCC(=O)NCc4ccccc4)c(C)c3)nc2c1` [Example 24, N-benzyl-2-[4-(5,7-dimethoxy-4-oxo-3,4-dihydroquinazolin-2-yl)-2,6-dimethylphenoxy]acetamide], for which the “FRET activity (<50 uM)” value was “Active”.

As for `COc1cc(OC)c2c(=O)[nH]c(-c3cc(C)c(OCCCCO)c(C)c3)nc2c1` [Example 25, 2-[4-(4-hydroxy-butoxy)-3,5-dimethyl-phenyl]-5,7-dimethoxy-3H-quinazolin-4-one], the “FRET activity (<50 uM)” value is “Active”.

With `Cc1cc(-c2nc3cc(Cl)ccc3c(=O)[nH]2)cc(C)c1OCCO` [Example 26, 7-chloro-2-(4-(2-hydroxyethoxy)-3,5-dimethylphenyl)quinazolin-4(3H)-one], the “FRET activity (<50 uM)” value is recorded as “Inactive”.

`Cc1cc(-c2nc3cccc(Cl)c3c(=O)[nH]2)cc(C)c1OCCO` [Example 27, 5-chloro-2-(4-(2-hydroxyethoxy)-3,5-dimethylphenyl)quinazolin-4(3H)-one]: the “FRET activity (<50 uM)” value is “Inactive”.

For `COc1ccc2c(=O)[nH]c(-c3cc(C)c(OCCO)c(C)c3)nc2c1` [Example 28, 2-(4-(2-hydroxyethoxy)-3,5-dimethylphenyl)-7-methoxyquinazolin-4(3H)-one], the “FRET activity (<50 uM)” value is on record as “Inactive”.

On to `COc1cc(OC)c2c(=O)[nH]c(-c3ccc(OCCNc4nnc(-c5ccccc5)[nH]4)c(C)c3)nc2c1` [Example 29, 5,7-Dimethoxy-2-{3-methyl-4-[2-(5-phenyl-4H-[1,2,4]triazol-3-ylamino)-ethoxy]-phenyl}-3H-quinazolin-4-one], for which the “FRET activity (<50 uM)” value is listed as “Active”.

As for `COc1cc(OC)c2c(=O)[nH]c(-c3cc(C)c(OCCNc4nc(C)no4)c(C)c3)nc2c1` [Example 30, 2-{3,5-Dimethyl-4-[2-(3-methyl-[1,2,4]oxadiazol-5-ylamino)-ethoxy]-phenyl}-5,7-dimethoxy-3H-quinazolin-4-one], the “FRET activity (<50 uM)” value is on record as “Active”.

On to `COc1cc(OC)c2c(=O)[nH]c(-c3cc(C)c(OCCNC(C)=O)c(C)c3)nc2n1` [Example 31, N-{2-[4-(5,7-dimethoxy-4-oxo-3,4-dihydro-pyrido[2,3-d]pyrimidin-2-yl)-2,6-dimethyl-phenoxy]-ethyl}-acetamide], for which the “FRET activity (<50 uM)” value is listed as “Active”.

In the case of `COc1cc(OC)c2c(=O)[nH]c(-c3cc(C)c(CNC(C)=O)c(C)c3)nc2n1` [Example 33, N-[4-(5,7-dimethoxy-4-oxo-3,4-dihydro-pyrido[2,3-d]pyrimidin-2-yl)-2,6-dimethyl-benzyl]-acetamide], the “FRET activity (<50 uM)” value is “Active”.

`COc1cc(OC)c2c(=O)[nH]c(-c3cc(C)c(OCCNCC(F)(F)F)c(C)c3)nc2c1` [Example 34, 2-{3,5-dimethyl-4-[2-(2,2,2-trifluoro-ethylamino)-ethoxy]-phenyl}-5,7-dimethoxy-3H-quinazolin-4-one]: the “FRET activity (<50 uM)” value is “Inactive”.

Take `COc1cc(OC)c2c(=O)[nH]c(-c3cc(C)c(OCCNC=O)c(C)c3)cc2c1` [Example 35, N-{2-[4-(6,8-dimethoxy-1-oxo-1,2-dihydro-isoquinolin-3-yl)-2,6-dimethyl-phenoxy]-ethyl}-formamide]: the “FRET activity (<50 uM)” value is given as “Active”.

For the compound `CNCCOc1c(C)cc(-c2nc3cc(OC)cc(OC)c3c(=O)[nH]2)cc1C` [Example 36, 2-(3,5-dimethyl-4-(2-(methylamino)ethoxy)phenyl)-5,7-dimethoxyquinazolin-4(3H)-one], the “FRET activity (<50 uM)” value is “Active”.
